Test results from the supplement of paper PMC10307832.

Assays:
Experiment in all cases: relative viability (nuclei count vs DMSO), 5 days (fraction); higher = more cells survive
[1] = test system: LCLC-97TM1
How it was run: (§1)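 Lung cancer cell lines in 1536-well plates got either a single drug or a fixed anchor-drug dose together with five library-drug doses (not always all listed) in √10 steps, by pin tool, on the day after seeding. Nuclei were counted after 5 days, and relative viability is the treated-to-vehicle ratio of nuclei counts. Values are medians of duplicate plates.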

[2] = test system: H3255
How it was run: as §1

[3] = test system: NCI-H520
How it was run: as §1

[4] = test system: NCI-H1666
How it was run: as §1

[5] = test system: NCI-H647
How it was run: as §1

[6] = test system: RERF-LC-KJ
How it was run: as §1

[7] = test system: NCI-H2126
How it was run: as §1

[8] = test system: NCI-H1915
How it was run: as §1

[9] = test system: NCI-H23
How it was run: as §1

[10] = test system: EPLC-272H
How it was run: as §1

[11] = test system: NCI-H650
How it was run: as §1

[12] = test system: NCI-H661
How it was run: as §1

[13] = test system: NCI-H2347
How it was run: as §1

[14] = test system: LC-2-ad
How it was run: as §1

[15] = test system: NCI-H2087
How it was run: as §1

[16] = test system: NCI-H2405
How it was run: as §1

[17] = test system: HCC-827
How it was run: as §1

[18] = test system: COR-L 105
How it was run: as §1

[19] = test system: ChaGo-K-1
How it was run: as §1

[20] = test system: 201T
How it was run: as §1

[21] = test system: PC-14
How it was run: as §1

`CCN(CC)CCCCNc1ncc2cc(-c3cc(OC)cc(OC)c3)c(NC(=O)NC(C)(C)C)nc2n1` + CCNC(=O)c1noc(-c2cc(C(C)C)c(O)cc2O)c1-c1ccc(CN2CCOCC2)cc1 [Luminespib] (partner 0.01 µM) gave a relative viability ([1]; first compound 0.01 µM) of 0.743, a relative viability ([1]; first compound 0.03162 µM) of 0.867 and a relative viability ([1]; first compound 0.1 µM) of 1.02. It also gave a relative viability ([1]; first compound 0.3162 µM) of 0.818, a relative viability ([1]; first compound 1 µM) of 0.775 and a relative viability ([2]; first compound 0.01 µM) of 0.73. For the same molecule, the relative viability ([2]; first compound 0.03162 µM) was 0.824, the relative viability ([2]; first compound 0.1 µM) was 0.915 and the relative viability ([2]; first compound 0.3162 µM) was 0.992. The relative viability ([2]; first compound 1 µM) was 0.833, the relative viability ([3]; first compound 0.01 µM) was 0.203 and the relative viability ([3]; first compound 0.03162 µM) was 0.228. It also gave a relative viability ([3]; first compound 0.1 µM) of 0.229, a relative viability ([3]; first compound 0.3162 µM) of 0.289 and a relative viability ([3]; first compound 1 µM) of 0.207. It also gave a relative viability ([4]; first compound 0.01 µM) of 0.944, a relative viability ([4]; first compound 0.03162 µM) of 0.971 and a relative viability ([4]; first compound 0.1 µM) of 1.04. For the same molecule, the relative viability ([4]; first compound 0.3162 µM) was 1.02, the relative viability ([4]; first compound 1 µM) was 0.794 and the relative viability ([5]; first compound 0.01 µM) was 0.163. It also gave a relative viability ([5]; first compound 0.03162 µM) of 0.205, a relative viability ([5]; first compound 0.1 µM) of 0.222 and a relative viability ([5]; first compound 0.3162 µM) of 0.205. It also gave a relative viability ([5]; first compound 1 µM) of 0.148, a relative viability ([6]; first compound 0.01 µM) of 1.24 and a relative viability ([6]; first compound 0.03162 µM) of 1.21. It also gave a relative viability ([6]; first compound 0.1 µM) of 1.84, a relative viability ([6]; first compound 0.3162 µM) of 1.35 and a relative viability ([6]; first compound 1 µM) of 1.27. The relative viability ([7]; first compound 0.01 µM) was 0.985, the relative viability ([7]; first compound 0.03162 µM) was 0.876 and the relative viability ([7]; first compound 0.1 µM) was 0.953. It also gave a relative viability ([7]; first compound 0.3162 µM) of 0.92, a relative viability ([7]; first compound 1 µM) of 0.898 and a relative viability ([8]; first compound 0.01 µM) of 0.885. The relative viability ([8]; first compound 0.03162 µM) was 0.863, the relative viability ([8]; first compound 0.1 µM) was 1.02 and the relative viability ([8]; first compound 0.3162 µM) was 0.932. The relative viability ([8]; first compound 1 µM) was 0.711, the relative viability ([9]; first compound 0.01 µM) was 0.214 and the relative viability ([9]; first compound 0.03162 µM) was 0.203. It also gave a relative viability ([9]; first compound 0.1 µM) of 0.241, a relative viability ([9]; first compound 0.3162 µM) of 0.202 and a relative viability ([9]; first compound 1 µM) of 0.205. The relative viability ([10]; first compound 0.01 µM) was 0.26, the relative viability ([10]; first compound 0.03162 µM) was 0.266 and the relative viability ([10]; first compound 0.1 µM) was 0.204. The relative viability ([10]; first compound 0.3162 µM) was 0.219, the relative viability ([10]; first compound 1 µM) was 0.329 and the relative viability ([11]; first compound 0.01 µM) was 0.74. The relative viability ([11]; first compound 0.03162 µM) was 0.729, the relative viability ([11]; first compound 0.1 µM) was 0.736 and the relative viability ([11]; first compound 0.3162 µM) was 0.864. The relative viability ([11]; first compound 1 µM) was 0.848, the relative viability ([12]; first compound 0.01 µM) was 0.922 and the relative viability ([12]; first compound 0.03162 µM) was 0.964. The relative viability ([12]; first compound 0.1 µM) was 0.968, the relative viability ([12]; first compound 0.3162 µM) was 0.982 and the relative viability ([12]; first compound 1 µM) was 0.925. The relative viability ([13]; first compound 0.01 µM) was 0.675, the relative viability ([13]; first compound 0.03162 µM) was 0.341 and the relative viability ([13]; first compound 0.1 µM) was 0.447. The relative viability ([13]; first compound 0.3162 µM) was 0.372, the relative viability ([13]; first compound 1 µM) was 0.526 and the relative viability ([14]; first compound 0.01 µM) was 0.971. The relative viability ([14]; first compound 0.03162 µM) was 1.12, the relative viability ([14]; first compound 0.1 µM) was 1.21 and the relative viability ([14]; first compound 0.3162 µM) was 1.04. The relative viability ([14]; first compound 1 µM) was 1.11, the relative viability ([15]; first compound 0.01 µM) was 0.172 and the relative viability ([15]; first compound 0.03162 µM) was 0.154. The relative viability ([15]; first compound 0.1 µM) was 0.161, the relative viability ([15]; first compound 0.3162 µM) was 0.177 and the relative viability ([15]; first compound 1 µM) was 0.158. The relative viability ([16]; first compound 0.01 µM) was 0.649, the relative viability ([16]; first compound 0.03162 µM) was 0.644 and the relative viability ([16]; first compound 0.1 µM) was 0.76. The relative viability ([16]; first compound 0.3162 µM) was 0.654, the relative viability ([16]; first compound 1 µM) was 0.684 and the relative viability ([17]; first compound 0.01 µM) was 0.675. The relative viability ([17]; first compound 0.03162 µM) was 0.891, the relative viability ([17]; first compound 0.1 µM) was 0.77 and the relative viability ([17]; first compound 0.3162 µM) was 0.774. For the same molecule, the relative viability ([17]; first compound 1 µM) was 0.587, the relative viability ([18]; first compound 0.01 µM) was 0.909 and the relative viability ([18]; first compound 0.03162 µM) was 0.698. The relative viability ([18]; first compound 0.1 µM) was 0.73, the relative viability ([18]; first compound 0.3162 µM) was 0.795 and the relative viability ([18]; first compound 1 µM) was 0.68. For the same molecule, the relative viability ([19]; first compound 0.01 µM) was 0.618, the relative viability ([19]; first compound 0.03162 µM) was 0.638 and the relative viability ([19]; first compound 0.1 µM) was 0.727. It also gave a relative viability ([19]; first compound 0.3162 µM) of 0.679, a relative viability ([19]; first compound 1 µM) of 0.811 and a relative viability ([20]; first compound 0.01 µM) of 1.09. The relative viability ([20]; first compound 0.03162 µM) was 0.955, the relative viability ([20]; first compound 0.1 µM) was 1.11 and the relative viability ([20]; first compound 0.3162 µM) was 1.08. For the same molecule, the relative viability ([20]; first compound 1 µM) was 0.932, the relative viability ([21]; first compound 0.01 µM) was 0.138 and the relative viability ([21]; first compound 0.03162 µM) was 0.126. It also gave a relative viability ([21]; first compound 0.1 µM) of 0.176, a relative viability ([21]; first compound 0.3162 µM) of 0.141 and a relative viability ([21]; first compound 1 µM) of 0.138.
